{
  "source": "paper PMC9413201",
  "about": "“Covalent Proteomimetic Inhibitor of the Bacterial FtsQB Divisome Complex” (Journal of the American Chemical Society, 2022)",
  "test_system": "E. coli 87",
  "assay": "Zebrafish larvae infection model (E. coli 87 expressing mScarlet)",
  "assay_type": "in vivo, zebrafish (Danio rerio) larvae",
  "conditions": "L8S1 3.125 μM, 17fα 70 μM, 15 zebrafish per condition",
  "experimental": "1.13 Microinjection of zebrafish larvae with E.coli 87 expressing mScarlet Transparent Casper zebrafish (Danio rerio) larvae were infected and treated according to protocols described by Van der Sar et al. and Bernard et al..7,8 In brief, zebrafish larvae collected from a laboratory-breeding colony kept at 24 °C and a 12:12 h dark/light regime. Larvae were selected based on morphology according to hours post fertilization (hpf) and kept at 28 °C. All protocols followed the international guidelines on the protection of animals used for scientific purposes specified by the EU Directive 2010/63/EU, which allows zebrafish larvae to be used up to the moment of free-living (5–7 dpf). Larvae were dechorionated at 28 hpf and anaesthetized in 0.2% tricaine methanesulfonate (MS222, Fluka A-5040). Larvae were individually infected with 1 nL, containing approximately 150-200 CFU ([…]), of mScarlet expressing clinical isolate E. coli 87 via microinjection of the caudal vein as described previously.9 One hour post infection, larvae were treated with L8S1, 17fα or a combination of the two via another microinjection of 1 nL in the caudal vein. To correct dilution of the treatment upon injection in the vein (1 nL in 250 nL zebrafish larvae volume), treatments were diluted in 0.1% phenol red (Sigma-Aldrich, p-0290) in phosphate buffered saline (PBS) to 250x the concentration as tested in vitro. Zebrafish larvae were kept at 30 °C throughout the experiment and survival of the larvae, based on heartbeat, was determined every 24 h for 2 d. Moreover, 18 h post infection larvae were anaesthetized using MS222 and bacterial load was determined using an Olympus IX83 fluorescence microscope (4x objective magnification, Hamamatsu ORCA-Flash 4.0 camera) at specific wavelength for detection of red fluorescence (excitation/emission, 580/610 nm). Obtained images were analyzed using CellProfiler 3.19 (Broad Institute, Cambridge, MA, USA) with a custom-made automated analysis pipeline to count and quantify pixel intensity within the larvae. Integrated red fluorescence intensity per larvae was used as a quantification of bacterial burden.",
  "note": "Numbered stars: 1 amine (or outer) side, 2 acyl side, 3 side chain; on linkers, the order of the positions; unused ones are H or OH. Bridge positions count the residues as written; N and C are the ends. Square brackets hold non-standard residues; d marks the D form. Peptide text beside a SMILES is read from it. * marks the point of attachment. X1 = O=C([C@H](CCCCCC=[*:3])N[*:1])[*:2]; Nle = CCCC[C@H](N)C(=O)O; BrAc = O=C(CBr)*",
  "data": [
    {"smiles": "CCCC[C@@H]1NC(=O)[C@H](CO)NC(=O)[C@H](CC(C)C)NC(=O)[C@H](CCC(=O)O)NC(=O)[C@H](CC(N)=O)NC(=O)[C@@H](NC(=O)[C@H](C)NC(C)=O)CCCCCC=CCCCCC[C@@H](C(=O)N[C@@H](CCCCNC(=O)CBr)C(=O)N[C@@H](Cc2ccccc2)C(=O)N[C@@H](Cc2ccc(O)cc2)C(=O)N[C@@H](CCCNC(=N)N)C(=O)N[C@@H](CC(C)C)C(N)=O)NC(=O)CNC(=O)[C@@H]2CCCN2C(=O)[C@H](CCCNC(=N)N)NC(=O)[C@H]([C@@H](C)O)NC1=O", "note": "[17fα] (Ac-A[X1]NELS[Nle]TRPG[X1]K(BrAc)FYRL-NH2; staple 2-12)", "values": [
      {"measurement": "Survival rate of zebrafish larvae after 24 h (mean ± SD)", "setting": "infected with E. coli 87 (189 CFU), treated 1 h post infection by microinjection, survival by heartbeat, n = 4 replicates, SD", "result": "20.0 ±16.3"},
      {"measurement": "Survival rate of zebrafish larvae after 24 h, replicate #1", "setting": "replicate #1, E. coli 87 (189 CFU)", "result": 0},
      {"measurement": "Survival rate of zebrafish larvae after 24 h, replicate #2", "setting": "replicate #2, E. coli 87 (189 CFU)", "result": 40},
      {"measurement": "Survival rate of zebrafish larvae after 24 h, replicate #3", "setting": "replicate #3, E. coli 87 (189 CFU)", "result": 20},
      {"measurement": "Survival rate of zebrafish larvae after 24 h, replicate #4", "setting": "replicate #4, E. coli 87 (189 CFU)", "result": 20}
    ]}
  ]
}
